Results as given in patent US6534523B1, “Hepatitis C inhibitor tri-peptides” (Boehringer Ingelheim (Canada) Ltd., priority 1998, dated 2003).

Target: HCV NS3 protease (UniProt P26663)
Format: biochemical, HCV genotype 1b
Design: rows headed: IC50 (μM); IC50 (μM)
Conditions: Table 3
Method: Recombinant HCV NS3 Protease/NS4A Cofactor Peptide Radiometric Assay
The enzyme was cloned, expressed and prepared according to the protocol described in Example 36. The enzyme was stored at −80° C., thawed on ice and diluted just prior to use in the assay buffer containing the NS4A cofactor peptide.
The substrate used for the NS3 protease/NS4A cofactor peptide radiometric assay, DDIVPC-SMSYTW, is cleaved between the cysteine and the serine residues by the enzyme. The sequence DDIVPC-SMSYTW corresponds to the NS5A/NS5B natural cleavage site in which the cysteine residue in P2 has been substituted for a proline. […] (molar ratio enzyme:cofactor 1:100) in the absence or presence of inhibitors. The separation of substrate from products is performed by adding avidin-coated agarose beads to the assay mixture followed by filtration. The amount of SMS[^125I-Y]TW product found in the filtrate allows for the calculation of the percentage of substrate conversion and of the percentage of inhibition.
The enzymatic reaction was initiated by the addition of the enzyme/NS4A peptide solution and the assay mixture was incubated for 40 min at 23° C. under gentle agitation. Ten (10) μL of 0.5N NaOH were added and 10 μL 1 M MES, pH 5.8 were added to quench the enzymatic reaction.
A non-linear curve fit with the Hill model was applied to the inhibition-concentration data, and the 50% effective concentration (IC50) was calculated by the use of SAS software (Statistical Software System; SAS Institute, Inc. Cary, N.C.). […]
The NS2-NS5B-3′ non coding region was cloned by RT-PCR into the pCR®3 vector (Invitrogen) using RNA extracted from the serum of an HCV genotype 1b infected individual (provided by Dr. Bernard Willems, Hôpital St-Luc, Montréal, Québec, Canada). The NS3-NS4A DNA region was then subcloned by PCR into the pFastBac™ HTa baculovirus expression vector (Gibco/BRL). The vector sequence includes a region encoding a 28-residue N-terminal sequence which contains a hexahistidine tag. The Bac-to-Bac™ baculovirus expression system (Gibco/BRL) was used to produce the recombinant baculovirus. The full length mature NS3 and NS4A heterodimer protein (His-NS3-NS4AFL) was expressed by infecting 10^6 Sf21 cells/mL with the recombinant baculovirus at a multiplicity of infection of 0.1-0.2 at 27° C. The infected culture was harvested 48 to 64 h later by centrifugation at 4° C. The cell pellet was homogenized in 50 mM NaPO4, pH 7.5, 40% glycerol (w/v), 2 mM β-mercaptoethanol, in presence of a cocktail of protease inhibitors. His-NS3-NS4AFL was then extracted from the cell lysate with 1.5% NP-40, 0.5% Triton X-100, 0.5M NaCl, and a DNase treatment. After ultracentrifugation, the soluble extract was diluted 4-fold and bound on a Pharmacia Hi-Trap Ni-chelating column. […] The His-NS3-NS4AFL was stored at −80° C. in 50 mM sodium phosphate, pH 7.5, 10% (w/v) glycerol, 0.5 M NaCl, 0.25 M imidazole, 0.1% NP-40. It was thawed on ice and diluted just prior to use. The protease activity of His-NS3-NS4AFL was assayed in 50 mM Tris-HCl, pH 8.0, 0.25 M sodium citrate, 0.01% (w/v) n-dodecyl-β-D-maltoside, 1 mM TCEP. Five (5) μM of the internally quenched substrate anthranilyl-DDIVPAbu[C(O)—O]-AMY(3-NO2)TW-OH in presence of various concentrations of inhibitor were incubated with 1.5 nM of His-NS3-NS4AFL for 45 min at 23° C. […] The reaction was terminated with the addition of 1M MES, pH 5.8. Fluorescence of the N-terminal product was monitored on a Perkin-Elmer LS-50B fluorometer equipped with a 96-well plate reader (excitation wavelength: 325 nm; emission wavelength: 423 nm).
The following tables list compounds representative of the invention.

Sequence of HCV NS3 protease (P26663 1027-1206, other chains not shown): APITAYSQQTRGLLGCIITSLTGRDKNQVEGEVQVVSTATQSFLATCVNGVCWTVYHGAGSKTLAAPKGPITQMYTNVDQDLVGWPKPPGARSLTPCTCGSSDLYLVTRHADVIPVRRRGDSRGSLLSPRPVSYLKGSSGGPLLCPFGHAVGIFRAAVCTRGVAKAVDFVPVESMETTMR

SMILES | IC50
CC[C@H]1C[C@]1(NC(=O)[C@@H]1C[C@@H](OCc2cccc3ccccc23)CN1C(=O)[C@@H](NC(=O)OCC(C)C)C(C)C)C(=O)O [compound 302] | 12.5 µM
C=C[C@H]1C[C@]1(NC(=O)[C@@H]1C[C@@H](OCc2cccc3ccccc23)CN1C(=O)[C@@H](NC(=O)OC(C)(C)C)C1CCCCC1)C(=O)O [compound 305] | 3.2 µM
CC[C@H]1C[C@]1(NC(=O)[C@@H]1C[C@@H](OCc2cccc3ccccc23)CN1C(=O)[C@@H](NC(=O)OCC(C)C)C1CCCCC1)C(=O)O [compound 303] | 11 µM
CCC1CC1(NC(=O)C1CC(OCc2cccc3ccccc23)CN1C(=O)C(NC(=O)OC(C)(C)C)C1CCCCC1)C(=O)O (stereo not shown) [compound 301] | 7.7 µM

Same assay, conditions: Table 5

SMILES | IC50
C=CC1CC1(NC(=O)C1CC(Oc2ccnc3ccccc23)CN1C(=O)C(NC(=O)OC(C)(C)C)C(C)(C)SCc1ccc(C)cc1)C(=O)O (stereo not shown) [compound 508] | 3.1 µM

Same assay, conditions: Table 6

SMILES | IC50
C=CC1CC1(NC(=O)C1CC(Oc2cc(-c3ccccc3)nc3cc(CC)ccc23)CN1C(=O)C(NC(=O)OC(C)(C)C)C(C)C)C(=O)O (stereo not shown) [compound 603] | 0.195 µM
C=CC1CC1(NC(=O)C1CC(Oc2cc(-c3ccccc3)nc3cc(F)ccc23)CN1C(=O)C(NC(=O)OC(C)(C)C)C(C)(C)C)C(=O)O (stereo not shown) [compound 627] | 0.33 µM
C=CC1CC1(NC(=O)C1CC(Oc2ccnc3cc(N(C)C)ccc23)CN1C(=O)C(NC(=O)OC(C)(C)C)C(C)(C)C)C(=O)O (stereo not shown) [compound 615] | 0.16 µM
C=CC1CC1(NC(=O)C1CC(Oc2cc(Cl)nc3ccccc23)CN1C(=O)C(NC(=O)OC(C)(C)C)C(C)(C)C)C(=O)O (stereo not shown) [compound 610] | 0.25 µM
C=CC1CC1(NC(=O)C1CC(Oc2cc(OCC)nc3ccccc23)CN1C(=O)C(NC(=O)OC(C)(C)C)C(C)(C)C)C(=O)O (stereo not shown) [compound 622] | 0.16 µM
C=CC1CC1(NC(=O)C1CC(Oc2ccnc3cc(OC)ccc23)CN1C(=O)C(NC(=O)OC(C)(C)C)C(C)(C)C)C(=O)O (stereo not shown) [compound 604] | 0.073 µM
C=CC1CC1(NC(=O)C1CC(Oc2ccnc3cc(Cl)ccc23)CN1C(=O)C(NC(=O)OC(C)(C)C)C(C)(C)C)C(=O)O (stereo not shown) [compound 606] | 0.48 µM

Same assay, conditions: Table 7

SMILES | IC50
C=CC1CC1(NC(=O)C1CC(Oc2cc(-c3csc(C)n3)nc3cc(OC)ccc23)CN1C(=O)C(NC(=O)OC(C)(C)C)C(C)(C)C)C(=O)O (stereo not shown) [compound 711] | 0.016 µM
C=CC1CC1(NC(=O)C1CC(Oc2cc(OCC(C)C)nc3cc(OC)ccc23)CN1C(=O)C(NC(=O)OC(C)(C)C)C(C)(C)C)C(=O)O (stereo not shown) [compound 735] | 0.058 µM
C=CC1CC1(NC(=O)C1CC(Oc2cc(OC(C)C)nc3cc(OC)ccc23)CN1C(=O)C(NC(=O)OC(C)(C)C)C(C)(C)C)C(=O)O (stereo not shown) [compound 730] | 0.042 µM
C=CC1CC1(NC(=O)C1CC(Oc2cc(C3CCCCC3)nc3cc(OC)ccc23)CN1C(=O)C(NC(=O)OC(C)(C)C)C(C)(C)C)C(=O)O (stereo not shown) [compound 737] | 0.11 µM
C=CC1C[C@]1(NC(=O)[C@@H]1C[C@@H](Oc2cc(C(C)(C)C)nc3cc(OC)ccc23)CN1C(=O)[C@@H](NC(=O)OC(C)(C)C)C(C)(C)C)C(=O)O (stereo partly shown) [compound 736] | 0.25 µM
C=CC1CC1(NC(=O)C1CC(Oc2cc(-c3cccnc3)nc3cc(OC)ccc23)CN1C(=O)C(NC(=O)OC(C)(C)C)C(C)(C)C)C(=O)O (stereo not shown) [compound 716] | 0.079 µM
C=CC1CC1(NC(=O)C1CC(Oc2cc(N(C)c3ccccc3)nc3cc(OC)ccc23)CN1C(=O)C(NC(=O)OC(C)(C)C)C(C)(C)C)C(=O)O (stereo not shown) [compound 708] | 0.15 µM
C=CC1CC1(NC(=O)C1CC(Oc2cc(OCCC)nc3cc(OC)ccc23)CN1C(=O)C(NC(=O)OC(C)(C)C)C(C)(C)C)C(=O)O (stereo not shown) [compound 731] | 0.031 µM
C=CC1CC1(NC(=O)C1CC(Oc2cc(OCC)nc3cc(OC)ccc23)CN1C(=O)C(NC(=O)OC(C)(C)C)C(C)(C)C)C(=O)O (stereo not shown) [compound 703] | 0.047 µM
C=CC1CC1(NC(=O)C1CC(Oc2cc(-c3cccnc3)nc3cc(OC)ccc23)CN1C(=O)C(NC(=O)OC(C)(C)C)C(C)(C)C)C(=O)O (stereo not shown) [compound 727] | 0.07 µM
C=CC1CC1(NC(=O)C1CC(Oc2cc(N3CCC(C)CC3)nc3cc(OC)ccc23)CN1C(=O)C(NC(=O)OC(C)(C)C)C(C)(C)C)C(=O)O (stereo not shown) [compound 724] | 0.075 µM
C=CC1CC1(NC(=O)C1CC(Oc2cc(-c3csc(CS(C)(=O)=O)n3)nc3cc(OC)ccc23)CN1C(=O)C(NC(=O)OC(C)(C)C)C(C)(C)C)C(=O)O (stereo not shown) [compound 728] | 0.022 µM

Same assay, conditions: Table 8

SMILES | IC50
C=CC1CC1(NC(=O)C1CC(Oc2cc(-c3ccccc3)nc3cc(OC)ccc23)CN1C(=O)C(Nc1ccc([N+](=O)[O-])c(C(F)(F)F)c1)C(C)C)C(=O)O (stereo not shown) [compound 819] | 0.32 µM
C=CC1CC1(NC(=O)C1CC(Oc2cc(-c3ccccc3)nc3cc(OC)ccc23)CN1C(=O)C(Nc1ccc(C)cc1)C(C)C)C(=O)O (stereo not shown) [compound 822] | 0.05 µM
C=CC1CC1(NC(=O)C1CC(Oc2cc(-c3ccccc3OC)nc3cc(OC)ccc23)CN1C(=O)C(NC(=O)OC(C)(C)C)C(C)(C)C)C(=O)O (stereo not shown) [compound 823] | 0.107 µM
C=CC1CC1(NC(=O)C1CC(Oc2cc(-c3ccccc3)nc3cc(OC)ccc23)CN1C(=O)C(NC(=O)OC(C)(C)C)C(C)OC)C(=O)O (stereo not shown) [compound 851] | 0.12 µM
C=CC1CC1(NC(=O)C1CC(Oc2cc(-c3ccccc3)nc3cc(OC)ccc23)CN1C(=O)C(NC(=O)CC1CCCCC1)C(C)(C)C)C(=O)O (stereo not shown) [compound 804] | 0.032 µM
C=CC1CC1(NC(=O)C1CC(Oc2cc(-c3ccccc3)nc3cc(OC)ccc23)CN1C(=O)C(NC(=O)NC1CCCCC1)C(C)(C)C)C(=O)O (stereo not shown) [compound 808] | 0.008 µM
C=CC1CC1(NC(=O)C1CC(Oc2cc(-c3ccccc3)nc3cc(OC)ccc23)CN1C(=O)C(NC(=O)OC1CCOC1)C(C)(C)C)C(=O)O (stereo not shown) [compound 867] | 0.051 µM
C=CC1CC1(NC(=O)C1CC(Oc2cc(-c3ccccc3)nc3cc(OC)ccc23)CN1C(=O)C(Nc1ccc(F)cc1)C(C)C)C(=O)O (stereo not shown) [compound 840] | 0.085 µM
C=CC1CC1(NC(=O)C1CC(Oc2cc(-c3ccccc3)nc3cc(OC)ccc23)CN1C(=O)C(CC(C)(C)C)NC(=O)OC(C)(C)C)C(=O)O (stereo not shown) [compound 849] | 0.11 µM
C=CC1CC1(NC(=O)C1CC(Oc2cc(-c3ccccc3)nc3cc(OC)ccc23)CN1C(=O)C(NC(=O)NC(C)C(C)(C)C)C(C)(C)C)C(=O)O (stereo not shown) [compound 872] | 0.005 µM
C=CC1CC1(NC(=O)C1CC(Oc2cc(-c3ccccc3)nc3cc(OC)ccc23)CN1C(=O)C(Nc1ccc2ccccc2c1)C(C)C)C(=O)O (stereo not shown) [compound 863] | 0.3 µM
C=CC1CC1(NC(=O)C1CC(Oc2cc(-c3ccccc3)nc3cc(OC)ccc23)CN1C(=O)C(NC(=O)NC(C)(C)COC)C(C)(C)C)C(=O)O (stereo not shown) [compound 857] | 0.011 µM
C=CC1CC1(NC(=O)C1CC(Oc2cc(-c3ccccc3)nc3cc(OC)ccc23)CN1C(=O)C(NC(=O)OC1CCOC1)C(C)(C)C)C(=O)O (stereo not shown) [compound 865] | 0.02 µM
C=CC1CC1(NC(=O)C1CC(Oc2cc(-c3ccccc3)nc3cc(OC)ccc23)CN1C(=O)C(NC(=O)NC(C)(CC)CC)C(C)(C)C)C(=O)O (stereo not shown) [compound 871] | 0.011 µM
C=CC1CC1(NC(=O)C1CC(Oc2cc(-c3ccccc3)nc3cc(OC)ccc23)CN1C(=O)C(NC(=S)NC1CCCCC1)C(C)(C)C)C(=O)O (stereo not shown) [compound 818] | 0.019 µM

Same assay, conditions: Table 9

SMILES | IC50
C=CC1CC1(NC(=O)C1CC(Oc2cc(-c3ccccc3)nc3cc(OC)ccc23)CN1C(=O)C(NS(=O)(=O)c1cccs1)C(C)(C)C)C(=O)O (stereo not shown) [compound 912] | 0.034 µM
